According to patent publication US20220274947A1, “NOVEL HETEROARYL-TRIAZOLE COMPOUNDS AS PESTICIDES” (Bayer Aktiengesellschaft, priority 2019, published 2022):

How the values were obtained:
Format in all cases: in vivo
[1] = test system: Aedes aegypti strain MONHEIM; experiment: Aedes aegypti test (AEDSAE surface treatment & contact assay); settings: exposure 30 minutes, 24 hours after contact, read-out: efficacy (mortality); for mortality at 4 mg/m2: surface concentration 4 mg/m^2, glazed tile; for mortality at 20 mg/m2: surface concentration 20 mg/m^2, glazed tile
Method in brief: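 Compound dissolved in acetone (2 mg/ml) with 2000 ppm rapeseed oil methyl ester, pipetted onto glazed tile and dried. Adult mosquitoes exposed on the surface for 30 min; percent mortality scored 24 h after contact.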

Myzus persicae [2] = experiment: Myzus persicae oral test; settings: 120 h, read-out: activity (mortality)
Method in brief: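 Percent mortality was recorded at day 5, where 0% means no aphids killed. Compound prepared from an acetone concentrate diluted in water and combined with IPL41 medium containing sugar was offered to mixed-stage green peach aphids, which sucked it through a parafilm seal.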

[3] = test system: Musca domestica strain WHO—N; experiment: Musca domestica test (MUSCDO surface treatment & contact assay); settings: exposure 30 minutes, 24 hours after contact, read-out: efficacy (mortality); for mortality at 20 mg/m2: surface concentration 20 mg/m^2, glazed tile; for mortality at 4 mg/m2: surface concentration 4 mg/m^2, glazed tile
Method in brief: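 Compound dissolved in acetone (2 mg/ml) with 2000 ppm rapeseed oil methyl ester and pipetted onto glazed tile; after acetone evaporation, adult flies exposed to dried surface for 30 minutes. Mortality (%) scored 24 hours after contact.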

Rhipicephalus microplus = experiment: Rhipicephalus (Boophilus) microplus dip test (BOOPMI Dip); settings: 168 h, application rate 100 ppm, engorged adult female ticks, after 7 days, read-out: activity (efficacy: 100% means all eggs are infertile)
Description: Rhipicephalus (Boophilus) Microplus—Dip Test (BOOPMI Dip)
Test Animal: cattle ticks (Rhipicephalus microplus) strain parkhurst, SP-resistant Solvent: dimethyl sulfoxide
To produce a suitable preparation of active compound, 10 mg of active compound are dissolved in 0.5 mL solvent, and the concentrate is diluted with water to the desired concentration.
This compound solution is pipetted into tubes. 8-10 engorged, adult, female cattle ticks (Rhipicephalus microplus) are placed in perforated tubes. These tubes are immersed in the aqueous compound solution until the ticks are completely moistened. After the liquid has drained off, the ticks are transferred to a filter paper in a plastic tray and stored in a climate chamber.
After 7 days egg deposition of fertile eggs is monitored. Eggs where fertility is not visible are stored in a climate chamber till hatching after about 42 days. An efficacy of 100% means all eggs are infertile; 0% means all eggs are fertile.

Rhipicephalus sanguineus = Rhipicephalus sanguineus in-vitro contact test, adult brown dog ticks (RHIPSA Cont); settings: 48 h, after 48 hours, read-out: activity (efficacy: 100% means all ticks are dead or moribund); for pest or weed control at 1 µg/cm2, 100 g/ha: application rate 1 μg/cm^2 (=100 g/ha); for pest or weed control at 5 µg/cm2, 500 g/ha: application rate 5 μg/cm^2 (=500 g/ha)
Method in brief: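 Compound in acetone was coated onto the inner walls of glass tubes and dried by rotation before adult brown dog ticks were exposed. Efficacy was scored at 48 h. Ticks unable to climb away from a 45–50 °C heating plate within 5 min counted as dead or moribund.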

[4] = test system: Anopheles funestus strain FUMOZ-R; experiment: Anopheles funestus test (ANPHFU surface treatment & contact assay); settings: exposure 30 minutes, 24 hours after contact, read-out: efficacy (mortality); for mortality at 4 mg/m2: surface concentration 4 mg/m^2, glazed tile; for mortality at 20 mg/m2: surface concentration 20 mg/m^2, glazed tile
Method in brief: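 Adult FUMOZ-R mosquitoes were exposed 30 min to glazed tiles treated with compound in acetone plus 2000 ppm rapeseed oil methyl ester, after solvent evaporation. Percent mortality was scored 24 h after contact.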

Myzus persicae [5] = experiment: Myzus persicae spray test; settings: in Brassica rapa, foliar, 120 h; for mortality at 500 g/ha: read-out: activity (mortality), application rate 500 g/ha, spray, Chinese cabbage leaf disks, after 5 days; for mortality at 100 g/ha: read-out: activity (mortality), application rate 100 g/ha, spray, Chinese cabbage leaf disks, after 5 days
Method in brief: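 Compound in acetone/DMF solvent diluted in water with 1000 ppm alkylarylpolyglycol ether emulsifier, sprayed onto Chinese cabbage leaf disks infested with all instars of Myzus persicae. Mortality (%) scored after 5 days.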

Row | SMILES | mortality at 4 mg/m2 [1] | mortality at 20 mg/m2 [1] | mortality at 4 ppm (Myzus persicae [2]) | mortality at 20 mg/m2 [3] | pest or weed control at 100 ppm (Rhipicephalus microplus) | pest or weed control at 1 µg/cm2, 100 g/ha (Rhipicephalus sanguineus) | pest or weed control at 5 µg/cm2, 500 g/ha (Rhipicephalus sanguineus) | mortality at 4 mg/m2 [3] | mortality at 4 mg/m2 [4] | mortality at 20 mg/m2 [4] | mortality at 500 g/ha (Myzus persicae [5]) | mortality at 100 g/ha (Myzus persicae [5])
1 | CCc1nc([C@H](C)NC(=O)c2cc(C(F)(F)F)cc(C(F)(F)F)c2)n(-c2ccc(C#N)cn2)n1 [I-1] | 80 to 100% | 80 to 100% | 100% | 80 to 100% | 100% | 80% | 100% | – | – | – | – | –
2 | CCc1nc([C@H](C)NC(=O)c2cc(Cl)cc(Cl)c2)n(-c2ccc(C#N)cn2)n1 [I-2] | – | – | – | – | 100% | – | 100% | 80 to 100% | – | – | – | –
3 | C[C@H](NC(=O)c1cc(Cl)nc(C(F)(F)F)c1)c1ncnn1-c1ccc(C#N)cn1 [II-5] | 80 to 100% | 80 to 100% | 100% | 80 to 100% | 100% | 100% | 100% | 80 to 100% | 80 to 100% | 80 to 100% | 90% | –
4 | C[C@H](NC(=O)c1cc(Cl)cc(C(F)F)c1)c1ncnn1-c1ccc(C#N)cn1 [II-12] | 80 to 100% | – | 100% | 80 to 100% | – | 100% | 100% | 80 to 100% | 80 to 100% | 80 to 100% | 90% | 90%
5 | C[C@H](NC(=O)c1cc(Cl)cc(OC(F)(F)F)c1)c1ncnn1-c1ncc(Cl)s1 [II-16] | – | 80 to 100% | – | 80 to 100% | – | 100% | 100% | – | – | 80 to 100% | – | 90%
6 | CCN(C(=O)c1ccc(-n2ncnc2[C@H](C)NC(=O)c2cc(Cl)cc(C(F)(F)F)c2)nc1)C1CC1 [II-31] | – | 80 to 100% | 100% | 80 to 100% | – | 100% | 100% | – | 80 to 100% | 80 to 100% | 100% | 100%
7 | C[C@H](NC(=O)c1cc(C(F)(F)F)cc(C(F)(F)F)c1)c1ncnn1-c1ccc(C(=O)N(C)C2CC2)cn1 [II-38, 6-(5-{(1S)-1-[3,5-bis(trifluoromethyl)benzamido]ethyl}-1H-1,2,4-triazol-1-yl)-N-cyclopropyl-N-methylnicotinamide] | 80 to 100% | 80 to 100% | 100% | – | 80% | 100% | 100% | – | – | 80 to 100% | 100% | 100%
8 | C[C@H](NC(=O)c1cc(C(F)(F)F)cc(C(F)(F)F)c1)c1ncnn1-c1ncc(Cl)s1 [II-40] | 80 to 100% | 80 to 100% | – | 80 to 100% | – | 80% | – | – | – | 80 to 100% | 100% | –
9 | C[C@H](NC(=O)c1cc(Cl)cc(C(F)(F)F)c1)c1ncnn1-c1cc(-n2cncn2)ccn1 [II-43] | 80 to 100% | 80 to 100% | – | 80 to 100% | 100% | 100% | 100% | – | – | 80 to 100% | – | –
